Measurements published in patent US20220233512A1, “INHIBITING AN IMMUNE RESPONSE MEDIATED BY ONE OR MORE OF TLR2, RAGE, CCR5, CXCR4 AND CD4” (priority 2020, published 2022).

Biological target: T1, mu opiate receptor (MOR) (Rattus norvegicus, UniProt P33535)
T1 construct: from tissue; host or cells: striatum (membrane preparation)
Test: MOR agonist activity using [35S]GTPgS binding assay in striatal membranes
Assay type: biochemical
Protocol: To assess the mu opiate receptor (MOR) agonist activity of positive compounds from the FLNA screening, compounds were tested in a [^35S]GTPgS binding assay using striatal membranes. […] This assay measures a functional consequence of receptor occupancy at one of the earliest receptor-mediated events. The assay permits for traditional pharmacological parameters of potency, efficacy and antagonist affinity, with the advantage that agonist measures are not subjected to amplification or other modulation that may occur when analyzing parameters further downstream of the receptor.
Thus, striatal tissue was homogenized in 10 volumes of ice cold 25 mM HEPES buffer, pH 7.4, which contained 1 mM EGTA, 100 mM sucrose, 50 mg/ml leupeptin, 0.04 mM PMSF, 2 mg/ml soybean trypsin inhibitor and 0.2% 2-mercaptoethanol. The homogenates were centrifuged at 800×g for 5 minutes and the supernatants were centrifuged at 49,000×g for 20 minutes. The resulting pellets were suspended in 10 volume of reaction buffer, which contained 25 mM HEPES, pH 7.5, 100 mM NaCl, 50 mg/ml leupeptin, 2 mg/ml soybean trypsin inhibitor, 0.04 mM PMSF and 0.02% […].
The resultant striatal membrane preparation (200 mg) was admixed and maintained (incubated) at 30° C. for 5 minutes in reaction buffer as above that additionally contained 1 mM MgCl2 and 0.5 nM [^35S]GTPgS (0.1 mCi/assay, PerkinElmer Life and Analytical Sciences) in a total volume of 250 ml and continued for 5 minutes in the absence or presence of 0.1-10 mM of an assayed compound of interest. The reaction was terminated by dilution with 750 ml of ice-cold reaction buffer that contained 20 mM MgCl2 and 1 mM EGTA and immediate centrifugation at 16,000×g for 5 minutes.
The resulting pellet was solubilized by sonicating for 10 seconds in 0.5 ml of immunoprecipitation buffer containing 0.5% digitonin, 0.2% sodium cholate and 0.5% NP-40. Normal rabbit serum (1 ml) was added to 1 ml of lysate and incubated at 25° C. for 30 minutes. Nonspecific immune complexes were removed by incubation with 25 ml of protein A/G-conjugated agarose beads at 25° C. for 30 minutes followed by centrifugation at 5,000×g at 4° C. for 5 minutes. The supernatant was divided and separately incubated at 25° C. for 30 minutes with antibodies raised against Gao proteins (1:1,000 dilutions).
The immunocomplexes so formed were collected by incubation at 25° C. for 30 minutes with 40 ml of agarose-conjugated protein A/G beads and centrifugation at 5,000×g at 4° C. for 5 minutes. The pellet was washed and suspended in buffer containing 50 mM Tris-HCl, pH 8.0, and 1% NP-40. The radioactivity in the suspension was determined by liquid scintillation spectrometry. […] DAMGO (1 or 10 mM) was used as a positive control.

[1] = 0.1 μM compound as agonist, Series C-1 table
[2] = 1 μM compound as agonist, Series C-1 table
[3] = 0.1 μM compound as agonist, Series C-2 table
[4] = 1 μM compound as agonist, Series C-2 table

T1 sequence (P33535 whole entry): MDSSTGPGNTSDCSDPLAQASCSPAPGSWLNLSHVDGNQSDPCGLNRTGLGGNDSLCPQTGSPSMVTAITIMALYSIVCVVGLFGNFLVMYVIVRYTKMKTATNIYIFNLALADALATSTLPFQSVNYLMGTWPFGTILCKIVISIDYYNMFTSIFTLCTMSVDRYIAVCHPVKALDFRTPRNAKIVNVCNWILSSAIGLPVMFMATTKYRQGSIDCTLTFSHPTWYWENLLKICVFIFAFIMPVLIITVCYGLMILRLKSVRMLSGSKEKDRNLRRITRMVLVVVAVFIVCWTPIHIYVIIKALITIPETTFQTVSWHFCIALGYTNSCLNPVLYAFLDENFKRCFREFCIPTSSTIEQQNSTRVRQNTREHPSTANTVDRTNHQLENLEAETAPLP

Row | SMILES | MOR agonist activity ([35S]GTPgS binding to Gao) [1] [%] | MOR agonist activity ([35S]GTPgS binding to Gao) (1 μM + BFNA, Series C-1 table) [%] | MOR agonist activity ([35S]GTPgS binding to Gao) [2] [%] | MOR agonist activity ([35S]GTPgS binding to Gao) [3] [%] | MOR agonist activity ([35S]GTPgS binding to Gao) (1 μM + BFNA, Series C-2 table) [%] | MOR agonist activity ([35S]GTPgS binding to Gao) [4] [%]
1 | COC(=O)c1ccc(S(=O)(=O)N2CCC3(CC2)OCCN3S(=O)(=O)c2ccc(C(=O)OC)cc2)cc1 [Compound C0028] | 93.9 | 78.4 | 132.4 | – | – | –
2 | O=S(=O)(c1ccc(F)cc1)N1CCC2(CC1)OCCN2S(=O)(=O)c1ccc(F)cc1 [Compound C0029] | 175.4 | 16.6 | 308.8 | – | – | –
3 | CCCCc1ccc(S(=O)(=O)N2CCC3(CC2)OCCN3S(=O)(=O)c2ccc(CCCC)cc2)cc1 [Compound C0030] | 150.3 | 95.0 | 226.8 | – | – | –
4 | O=C(c1ccc([N+](=O)[O-])cc1)N1CCC2(CC1)OCCN2C(=O)c1ccc([N+](=O)[O-])cc1 [Compound C0032] | 145.4 | 80.9 | 202.0 | – | – | –
5 | O=C(c1ccc([N+](=O)[O-])cc1)N1CCC2(CC1)OCCN2S(=O)(=O)c1ccc([N+](=O)[O-])cc1 [Compound C0033] | 134.5 | 76.6 | 186.4 | – | – | –
6 | NS(=O)(=O)c1ccc(S(=O)(=O)N2CCC3(CC2)OCCN3S(=O)(=O)c2ccc(S(N)(=O)=O)cc2)cc1 [Compound C0034] | 103.6 | 80.1 | 167.9 | – | – | –
7 | O=[N+]([O-])c1ccc(S(=O)(=O)N2CCC3(CC2)NCCO3)cc1 [Compound C0040] | – | – | – | 145.8 | 90.4 | 308.3
8 | COc1ccc(NC(=O)N2CCC3(CC2)OCCN3S(=O)(=O)c2ccc(OC)cc2)cc1 [Compound C0041] | 186.1 | 95.5 | 244.4 | – | – | –
9 | O=C(OCc1ccccc1)c1ccc(S(=O)(=O)N2CCC3(CC2)OCCN3S(=O)(=O)c2ccc(C(=O)OCc3ccccc3)cc2)cc1 [Compound C0042] | 167.1 | 110.6 | 260.9 | – | – | –
10 | COc1ccc(S(=O)(=O)N2CCOC23CCN(C(=O)OC(C)(C)C)CC3)cc1 [Compound C0043] | – | – | – | 175.4 | 83.3 | 242.6
11 | O=[N+]([O-])c1ccc(S(=O)(=O)N2CCC3(CC2)NCCS3)cc1 [Compound C0044] | – | – | – | 173.7 | 59.1 | 280.1
12 | O=[N+]([O-])c1ccc(S(=O)(=O)N2CCC3(CC2)NCCCO3)cc1 [Compound C0045] | – | – | – | 149.2 | 105.3 | 238.8
13 | CC(=O)c1ccc(S(=O)(=O)N2CCOC23CCNCC3)cc1 [Compound C0046] | – | – | – | 286.2 | 156.8 | 492.9
14 | COc1ccc(S(=O)(=O)N2CCOC23CCN(S(=O)(=O)c2ccc(C(C)=O)cc2)CC3)cc1 [Compound C0047] | 142.2 | 80.1 | 206.1 | – | – | –
15 | COc1ccc(S(=O)(=O)N2CCC3(CC2)OCCN3S(=O)(=O)c2ccc(C(C)=O)cc2)cc1 [Compound C0048] | 209.1 | 89.9 | 245.3 | – | – | –
16 | COc1ccc(S(=O)(=O)N2CCC3(CC2)OCCN3S(=O)(=O)c2ccc(OC)c(OC)c2)cc1OC [Compound C0049] | 106.6 | 81.0 | 210.0 | – | – | –

Row | SMILES | MOR agonist activity ([35S]GTPgS binding to Gao) [1] [%] | MOR agonist activity ([35S]GTPgS binding to Gao) (1 μM + BFNA, Series C-1 table) [%] | MOR agonist activity ([35S]GTPgS binding to Gao) [2] [%] | MOR agonist activity ([35S]GTPgS binding to Gao) [3] [%] | MOR agonist activity ([35S]GTPgS binding to Gao) (1 μM + BFNA, Series C-2 table) [%] | MOR agonist activity ([35S]GTPgS binding to Gao) [4] [%]
17 | CC(=O)N1CCSC12CCN(S(=O)(=O)c1ccc([N+](=O)[O-])cc1)CC2 [Compound C0050] | – | – | – | 110.3 | 59.0 | 127.6
18 | CC(O)c1ccc(S(=O)(=O)N2CCC3(CC2)OCCN3S(=O)(=O)c2ccc(C(C)O)cc2)cc1 (stereo not drawn) [Compound C0051] | 94.4 | 55.9 | 170.4 | – | – | –
19 | CC(=O)c1ccc(C(=O)N2CCC3(CC2)OCCN3S(=O)(=O)c2ccc(C(C)=O)cc2)cc1 [Compound C0052] | 108.4 | 42.7 | 162.8 | – | – | –
20 | CC(=O)c1ccc(C(=O)N2CCOC23CCN(S(=O)(=O)c2ccc(C(C)=O)cc2)CC3)cc1 [Compound C0053] | 104.0 | 93.1 | 157.2 | – | – | –
21 | CC(=O)c1ccc(C(=O)N2CCC3(CC2)OCCN3C(=O)c2ccc(C(C)=O)cc2)cc1 [Compound C0054] | 68.2 | 43.5 | 127.0 | – | – | –
22 | CC(=O)c1ccc(S(=O)(=O)N2CCC3(CC2)OCCN3S(C)(=O)=O)cc1 [Compound C0056] | – | – | – | 98.6 | 86.3 | 193.4
23 | CC(=O)c1ccc(S(=O)(=O)N2CCC3(CC2)NCCS3)cc1 [Compound C0060] | – | – | – | 166.5 | 143.9 | 218.9
24 | COc1cc(S(=O)(=O)N2CCC3(CC2)OCCN3S(=O)(=O)c2cc(OC)c(OC)c(OC)c2)cc(OC)c1OC [Compound C0062] | 127.8 | 59.8 | 310.5 | – | – | –
25 | CC(=O)c1ccc(S(=O)(=O)N2CCC3(CC2)NC(=O)CN3S(=O)(=O)c2ccc(C(C)=O)cc2)cc1 [Compound C0064] | 213.8 | 38.1 | 349.6 | – | – | –
26 | CC(=O)c1ccc(S(=O)(=O)N2CCC3(CC2)OC(CN(C)C)CN3S(=O)(=O)c2ccc(C(C)=O)cc2)cc1 (stereo not drawn) [Compound C0065] | 198.3 | 47.7 | 279.5 | – | – | –
27 | O=S(=O)(c1ccc(Cl)cc1)N1CCC2(CC1)OCCN2S(=O)(=O)c1ccc(Cl)cc1 [Compound C0067] | 142.7 | 33.5 | 179.0 | – | – | –
28 | O=S(=O)(c1ccc(Br)cc1C(F)(F)F)N1CCC2(CC1)OCCN2S(=O)(=O)c1ccc(Br)cc1C(F)(F)F [Compound C0068] | 107.2 | 165.9 | 263.1 | – | – | –
29 | O=S(=O)(c1ccc(Br)cc1Br)N1CCC2(CC1)OCCN2S(=O)(=O)c1ccc(Br)cc1Br [Compound C0070] | 165.6 | 114.2 | 210.8 | – | – | –
30 | O=S(=O)(c1ccc(C(F)(F)F)cc1Br)N1CCC2(CC1)OCCN2S(=O)(=O)c1ccc(C(F)(F)F)cc1Br [Compound C0071] | 276.3 | 177.1 | 355.3 | – | – | –
31 | O=S(=O)(c1ccc(F)c(F)c1)N1CCC2(CC1)OCCN2S(=O)(=O)c1ccc(F)c(F)c1 [Compound C0072] | 172.7 | 67.1 | 259.1 | – | – | –
